Reference: patent US20100029507A1, “THE BIOCHIP FOR THE DETECTION OF PHOSPHORYLATION AND THE DETECTION METHOD USING THE SAME” (priority 2006, published 2010)
Residues, ends and D or L forms follow the SMILES beside them.

Biological target: cAMP-dependent protein kinase (Homo sapiens, UniProt P17612)
Assay: phosphorylation of chip-fixed substrate by kinase with [γ-32P]ATP, X-ray film detection
Format: biochemical
Details: substrate spotted on aldehyde coated slide glass, 10 units cAMP-dependent protein kinase, reaction one hour, sensitized 12~24 hours
Protocol: First, kemptide (Promega, Madison, Wis.) or malic enzyme-kemptide fusion protein was fixed on a slid glass as a substrate. Particularly, kemptide was dissolved in kemptide solution (10% glycerol, 60% PBS, pH 7.5) at the concentration of 0.1 mg/ml and this substrate solution was integrated on the aldehyde coated slid glass by using a microarrayer [Affymetrix 417 Arrayer (Takara Shuzo, Japan)] with leaving 300 μm distance between spots (2500/1 cm^2). The malic enzyme-kemptide prepared in Example 1 was also integrated on the slid glass with leaving 300 μm distance between spots (2500/1 cm^2). At this time, the size of each spot was 50 μm. The biochip integrated with substrate as described above was fixed in a 30° C. humid chamber for one hour. The biochip prepared in Example 2 was washed three times with washing buffer (2 mM KH2PO4, 1 mM Na2HPO4, 200 mM NaCl, 3 mM KCl, pH 7.5) and then reaction between the substrate and kinase was induced on the chip. Particularly, the chip was washed with kinase buffer (50 mM Tris-HCl, 10 mM MgCl2, pH 7.5) once and then pre-incubation was performed in the kinase buffer supplemented with 100 μM of ATP. […] The reacted biochip was sensitized on X-ray film for 12˜24 hours and then phosphorylation by kinase was measured.

Question: `CC(C)C[C@H](NC(=O)[C@H](CO)NC(=O)[C@H](C)NC(=O)[C@H](CCCNC(=N)N)NC(=O)[C@H](CCCNC(=N)N)NC(=O)[C@@H](N)CC(C)C)C(=O)NCC(=O)O` [kemptide] (H-LRRASLG-OH) was tested. Which “phosphorylation by kinase (spot signal on X-ray film)” value did it give?
Answer: spot signals were clearly confirmed
